Laboratory results reported in PubChem BioAssay AID1671243.

Molecular target: Casein kinase I isoform alpha (Homo sapiens) (UniProt P48729)
Assay: CSNK1A1 kinase inhibitors, dose response, biochemical, Z'-LYTE, FRET, direct format (AID 1671243)
Conditions: Z'-LYTE FRET kinase activity assay

Chain of Casein kinase I isoform alpha (Homo sapiens) (P48729 whole entry, looked up, canonical isoform): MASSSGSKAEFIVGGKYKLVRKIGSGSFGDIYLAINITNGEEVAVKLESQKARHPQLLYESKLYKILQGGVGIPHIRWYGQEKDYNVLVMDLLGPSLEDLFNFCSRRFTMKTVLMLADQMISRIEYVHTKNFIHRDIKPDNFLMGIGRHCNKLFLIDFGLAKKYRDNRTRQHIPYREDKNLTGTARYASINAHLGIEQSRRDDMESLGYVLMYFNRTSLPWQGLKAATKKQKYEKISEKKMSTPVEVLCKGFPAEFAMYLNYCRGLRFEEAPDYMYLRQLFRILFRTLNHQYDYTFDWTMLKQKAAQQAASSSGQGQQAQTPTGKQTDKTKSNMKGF

Brc1c(Br)c(Br)c2n[nH]nc2c1Br
IC50: 17.6 µM
